Measured values published in ChEMBL document CHEMBL1137068, “Design, synthesis and evaluation of bicyclic benzamides as novel 5-HT1F receptor agonists” (Bioorg Med Chem Lett, 2004).

Tests used:
[1] = biological target: T1, 5-hydroxytryptamine receptor 1B (Homo sapiens, UniProt P28222); test: Inhibitory activity against human 5-hydroxytryptamine 1B receptor; details: concentration not given here
[2] = biological target: T2, 5-hydroxytryptamine receptor 1D (Homo sapiens, UniProt P28221); test: In vitro binding affinity for human 5-hydroxytryptamine 1D receptor
[3] = biological target: T3, 5-hydroxytryptamine receptor 1F (Homo sapiens, UniProt P30939); test: In vitro binding affinity for human 5-hydroxytryptamine 1F receptor
T3 sequence (P30939 whole entry): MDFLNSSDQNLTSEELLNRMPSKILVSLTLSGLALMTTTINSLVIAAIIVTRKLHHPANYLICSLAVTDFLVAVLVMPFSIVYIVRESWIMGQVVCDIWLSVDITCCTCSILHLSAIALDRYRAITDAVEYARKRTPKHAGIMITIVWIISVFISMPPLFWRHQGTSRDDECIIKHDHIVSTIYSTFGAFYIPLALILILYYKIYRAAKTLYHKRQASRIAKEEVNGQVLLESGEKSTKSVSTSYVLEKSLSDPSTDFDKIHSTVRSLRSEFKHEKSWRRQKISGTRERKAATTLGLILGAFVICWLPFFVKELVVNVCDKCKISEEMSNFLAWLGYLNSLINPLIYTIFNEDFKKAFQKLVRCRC

[4] = biological target: T4, 5-hydroxytryptamine receptor 1A (Homo sapiens, UniProt P08908); test: In vitro binding affinity for human 5-hydroxytryptamine 1A receptor
T4 sequence (P08908 whole entry): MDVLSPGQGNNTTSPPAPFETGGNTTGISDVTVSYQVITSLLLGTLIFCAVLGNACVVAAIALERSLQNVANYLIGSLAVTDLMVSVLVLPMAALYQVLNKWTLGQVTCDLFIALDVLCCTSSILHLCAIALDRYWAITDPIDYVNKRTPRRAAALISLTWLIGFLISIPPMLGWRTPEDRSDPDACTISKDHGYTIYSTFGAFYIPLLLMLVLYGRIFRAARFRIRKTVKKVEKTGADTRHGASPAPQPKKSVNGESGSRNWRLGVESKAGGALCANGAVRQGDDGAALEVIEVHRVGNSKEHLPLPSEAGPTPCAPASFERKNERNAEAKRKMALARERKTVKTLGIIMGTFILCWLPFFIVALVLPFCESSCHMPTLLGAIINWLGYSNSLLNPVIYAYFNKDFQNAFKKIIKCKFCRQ

[5] = biological target: T5, 5-hydroxytryptamine receptor 1F (Homo sapiens) (UniProt P30939); test: Maximum stimulation of [35S]GTP-gamma-S, binding to human 5-hydroxytryptamine 1F receptor expressed in Mouse LM(tk-) cells relative to maximum effect of 5-HT; assay type: functional, cell-based
T5 sequence (whole entry): T3 sequence (P30939 whole entry)

[6] = biological target: T3, 5-hydroxytryptamine receptor 1F; test: Stimulation of [35S]GTP-gamma-S, binding to cloned human 5-hydroxytryptamine 1F receptor expressed in Mouse LM(tk-) cells; assay type: functional, cell-based
Homo sapiens [7] = species on record: Homo sapiens; test: Ratio of binding affinity for 5-hydroxytryptamine 1A receptor to that of 5-hydroxytryptamine 1F receptor
[8] = biological target: T1, 5-hydroxytryptamine receptor 1B; test: In vitro binding affinity for human 5-hydroxytryptamine 1B receptor
Homo sapiens [9] = species on record: Homo sapiens; test: Ratio of binding affinity for 5-hydroxytryptamine 1D receptor to that of 5-hydroxytryptamine 1F receptor
[10] = biological target: T2, 5-hydroxytryptamine receptor 1D; test: Inhibitory activity against human 5-hydroxytryptamine 1D receptor; details: concentration not given here
[11] = biological target: T2, 5-hydroxytryptamine receptor 1D; test: Inhibitory activity against 5-hydroxytryptamine 1D receptor at 10 uM
[12] = biological target: T1, 5-hydroxytryptamine receptor 1B; test: Inhibitory activity against 5-hydroxytryptamine 1B receptor at 10 uM

T2 sequence (P28221 whole entry): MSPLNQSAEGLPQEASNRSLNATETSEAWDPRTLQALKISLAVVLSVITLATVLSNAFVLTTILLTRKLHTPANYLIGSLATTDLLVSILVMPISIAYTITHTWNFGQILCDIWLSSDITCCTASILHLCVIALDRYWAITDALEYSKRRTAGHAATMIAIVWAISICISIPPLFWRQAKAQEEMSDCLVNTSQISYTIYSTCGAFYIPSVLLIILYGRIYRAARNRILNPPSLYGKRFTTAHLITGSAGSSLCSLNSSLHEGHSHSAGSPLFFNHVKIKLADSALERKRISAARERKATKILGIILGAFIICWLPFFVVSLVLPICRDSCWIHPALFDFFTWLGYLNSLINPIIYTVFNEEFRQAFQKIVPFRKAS
T1 sequence (P28222 whole entry): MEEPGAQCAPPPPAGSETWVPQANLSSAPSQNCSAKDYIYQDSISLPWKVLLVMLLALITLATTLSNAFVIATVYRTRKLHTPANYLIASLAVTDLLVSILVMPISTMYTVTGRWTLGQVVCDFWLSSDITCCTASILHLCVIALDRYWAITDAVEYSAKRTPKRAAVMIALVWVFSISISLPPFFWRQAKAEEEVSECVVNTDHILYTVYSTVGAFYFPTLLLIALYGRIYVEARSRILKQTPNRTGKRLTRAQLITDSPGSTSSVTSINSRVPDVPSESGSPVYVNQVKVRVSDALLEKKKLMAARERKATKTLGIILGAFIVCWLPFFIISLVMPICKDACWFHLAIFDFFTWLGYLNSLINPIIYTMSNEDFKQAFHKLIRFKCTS

Compound	Ki [2] [nM]	Ki [3] [nM]	Ki [4] [nM]	Selectivity ratio (Homo sapiens [7])	also measured
CN1CCC(C2CNc3ccc(NC(=O)c4ccc(F)cc4)cc32)CC1 (stereo in doubt; form 2) [listing 1 of 2 here]	–	–	–	–	inhibition [1]: < 50%
CN1CCC(N2CCOc3ccc(NC(=O)c4ccc(F)cc4)cc32)CC1	2300	520	860	–	inhibition [1]: < 50%
CN1CCC(N2CNc3ccc(NC(=O)c4ccc(F)cc4Cl)cc32)CC1	–	13	–	70	Emax [5]: 98%; Selectivity ratio (Homo sapiens [9]): 80; EC50 [6]: 63 nM
CN1CCC(C2CNc3ccc(NC(=O)c4ccc(F)cc4)cc32)CC1 (stereo in doubt; 3) [listing 1 of 2 here]	–	–	–	30	Selectivity ratio (Homo sapiens [9]): 250; inhibition [1]: < 50%
CN1CCC(C2CNc3ccc(NC(=O)c4ccc(F)cc4)cc32)CC1 (stereo in doubt; form 1) [listing 1 of 2 here]	–	–	–	–	inhibition [1]: < 50%
CN1CCC(c2noc3ccc(NC(=O)c4ccc(F)cc4)cc23)CC1	–	17	160	10	inhibition [11]: < 50%; inhibition [12]: < 50%
CN1CCC(N2CNc3ccc(NC(=O)c4c(F)cc(F)cc4F)cc32)CC1	–	17	–	50	Emax [5]: 95%; Selectivity ratio (Homo sapiens [9]): 120; EC50 [6]: 50 nM

More lines, main results first:

Ki [2] [nM]	Ki [3] [nM]	Ki [4] [nM]	Selectivity ratio (Homo sapiens [7])	Compound	also measured
–	12	–	10	CN1CCC(c2noc3ccc(NC(=O)c4ccc(F)cc4F)cc23)CC1	Emax [5]: 73%; EC50 [6]: 470 nM
210	4.8	12	–	CN1CCC(N2CCc3ccc(NC(=O)c4ccc(F)cc4)cc32)CC1	Ki [8]: 440 nM
–	9.6	250	–	CN1CCC(C2CNc3ccc(NC(=O)c4ccc(F)cc4)cc32)CC1 (stereo in doubt; form 2) [listing 2 of 2 here]	–
140	2.2	11	–	CN1CCC(n2ccc3ccc(NC(=O)c4ccc(F)cc4)cc32)CC1	Ki [8]: 260 nM
–	4.1	310	–	CN1CCC(n2ncc3ccc(NC(=O)c4ccc(F)cc4)cc32)CC1	inhibition [10]: < 50%; Ki [8]: 2400 nM
2300	9	240	–	CN1CCC(C2CNc3ccc(NC(=O)c4ccc(F)cc4)cc32)CC1 (stereo in doubt; 3) [listing 2 of 2 here]	–
–	8.6	250	–	CN1CCC(C2CNc3ccc(NC(=O)c4ccc(F)cc4)cc32)CC1 (stereo in doubt; form 1) [listing 2 of 2 here]	–
–	3.6	–	30	CN1CCC(c2noc3ccc(NC(=O)c4ccc(F)cc4Cl)cc23)CC1	Emax [5]: 71%; EC50 [6]: 140 nM
3100	3.9	870	–	CN1CCC(c2n[nH]c3ccc(NC(=O)c4ccc(F)cc4)cc23)CC1	Ki [8]: 2300 nM
